# Assays:
# CDK7/Cyclin H/MNAT1 = CDK7/Cyclin H/MNAT1 (Homo sapiens, UniProt P50613); assay: Inhibition of recombinant full length human CDK7/cyclinH/MAT1 using peptide substrate incubated for 40 mins in presence of [gamma-33ATP] by radiometric scintillation counting analysis; assay type: protein-complex assay
# CDK3/Cyclin E = CDK3/Cyclin E (Homo sapiens, UniProt Q00526); assay: Inhibition of recombinant full length human CDK3/CyclinE using Histone H1 as substrate incubated for 40 mins in presence of [gamma-33ATP] by radiometric scintillation counting analysis; assay type: protein-complex assay
# [1] = molecular target: Testis-specific serine/threonine-protein kinase 3 (Homo sapiens, UniProt Q96PN8); assay: Inhibition of recombinant full-length human TSSK3 using AMARAASAAALAR as substrate incubated for 40 mins in presence of [gamma33P]ATP by radiometric scintillation counting analysis
# [2] = molecular target: Mitogen-activated protein kinase 13 (Homo sapiens, UniProt O15264); assay: Inhibition of recombinant human full length SAPK4 using myelin basic protein as substrate incubated for 40 mins in presence of [gamma33P]ATP by radiometric scintillation counting analysis
# [3] = molecular target: Serine/threonine-protein kinase A-Raf (Homo sapiens, UniProt P10398); assay: Inhibition of human recombinant A-Raf (273 to end residues) using myelin as substrate incubated for 40 mins in presence of [gamma-33ATP] by radiometric scintillation counting analysis
# [4] = molecular target: Serine/threonine-protein kinase PAK 4 (Homo sapiens, UniProt O96013); assay: Inhibition of recombinant human PAK4 (295 to end residues) using myelin basic protein as substrate measured after 40 mins in presence of [gamma33P]ATP by radiometric scintillation counting analysis
# [5] = molecular target: Mast/stem cell growth factor receptor Kit (Homo sapiens, UniProt P10721, V560G); assay: Inhibition of recombinant human C-Kit V560G mutant (544 to end residues) using poly(Glu, Tyr) 4:1 as substrate incubated 40 mins in presence of [gamma-33ATP] by radiometric scintillation counting analysis
# [6] = molecular target: Myosin light chain kinase 2, skeletal/cardiac muscle (Homo sapiens, UniProt Q9H1R3); assay: Inhibition of recombinant full length human MYLK2 using KKLNRTLSFAEPG as substrate measured after 40 mins in presence of [gamma33P]ATP by radiometric scintillation counting analysis
# [7] = Inhibition of human PIP5K1
# [8] = molecular target: RAC-gamma serine/threonine-protein kinase (Homo sapiens, UniProt Q9Y243, S472D); assay: Inhibition of recombinant human PKBgamma S472D mutant (117 to end residues) using GRPRTSSFAEGKK as substrate incubated for 40 mins in presence of [gamma33P]ATP by radiometric scintillation counting analysis
# [9] = molecular target: Dual specificity protein kinase TTK (Homo sapiens, UniProt P33981, S389A); assay: Inhibition of recombinant full-length human TTK S389A mutant using MBP as substrate incubated for 40 mins in presence of [gamma33P]ATP by radiometric scintillation counting analysis
# Sequence of Dual specificity protein kinase TTK (P33981 whole entry S389A): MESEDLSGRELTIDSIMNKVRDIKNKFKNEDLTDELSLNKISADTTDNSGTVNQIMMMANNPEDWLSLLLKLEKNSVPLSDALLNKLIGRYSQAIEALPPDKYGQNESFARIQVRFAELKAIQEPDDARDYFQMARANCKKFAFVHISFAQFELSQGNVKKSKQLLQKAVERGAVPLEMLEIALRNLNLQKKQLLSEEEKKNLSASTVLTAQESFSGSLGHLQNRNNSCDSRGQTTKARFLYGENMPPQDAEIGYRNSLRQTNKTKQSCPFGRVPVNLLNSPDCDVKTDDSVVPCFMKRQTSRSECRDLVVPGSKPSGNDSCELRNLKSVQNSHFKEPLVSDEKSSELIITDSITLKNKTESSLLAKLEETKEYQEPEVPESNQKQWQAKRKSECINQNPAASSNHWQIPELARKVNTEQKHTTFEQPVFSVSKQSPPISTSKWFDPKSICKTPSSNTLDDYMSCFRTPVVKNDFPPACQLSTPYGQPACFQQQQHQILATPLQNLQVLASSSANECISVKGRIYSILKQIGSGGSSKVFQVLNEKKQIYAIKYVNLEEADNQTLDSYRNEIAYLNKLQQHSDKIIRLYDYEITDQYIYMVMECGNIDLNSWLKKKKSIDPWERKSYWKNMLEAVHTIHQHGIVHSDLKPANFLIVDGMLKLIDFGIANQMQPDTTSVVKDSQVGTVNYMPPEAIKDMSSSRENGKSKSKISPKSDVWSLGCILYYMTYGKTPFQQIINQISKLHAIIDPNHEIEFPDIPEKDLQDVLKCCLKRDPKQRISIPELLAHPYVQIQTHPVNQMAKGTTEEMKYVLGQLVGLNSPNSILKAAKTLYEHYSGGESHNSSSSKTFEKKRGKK
# [10] = molecular target: Serine-protein kinase ATM (Homo sapiens, UniProt Q13315); assay: Inhibition of recombinant full-length human ATM using GST-cMyc-p53 as substrate measured after 40 mins by ELISA
# [11] = molecular target: Tyrosine-protein kinase ABL1 (Homo sapiens, UniProt P00519, Q252H); assay: Inhibition of human recombinant ABL1 Q252H mutant (27 to end residues) using EAIYAAPFAKKK as substrate incubated for 40 mins in presence of [gamma-33P]ATP by radiometric scintillation counting analysis
# SRSF protein kinase 3 = SRSF protein kinase 3 (Homo sapiens, UniProt Q9UPE1); assay: Inhibition of recombinant full-length human MSSK1 using ERMRPRKRQGSVRRRV as substrate measured after 40 mins in presence of [gamma33P]ATP by radiometric scintillation counting analysis
# [12] = molecular target: Dual specificity protein kinase CLK3 (Homo sapiens, UniProt P49761); assay: Inhibition of recombinant full length human CLK3 using ERMRPRKRQGSVR as substrate incubated 40 mins in presence of [gamma-33ATP] by radiometric scintillation counting analysis
# [13] = molecular target: 3-phosphoinositide-dependent protein kinase 1 (Homo sapiens, UniProt O15530); assay: Inhibition of recombinant human PDK1 (52 to end residues) using KTFCGTPEYLAPE as substrate incubated for 40 mins in presence of [gamma33P]ATP by radiometric scintillation counting analysis
# Sequence of 3-phosphoinositide-dependent protein kinase 1 (O15530 whole entry): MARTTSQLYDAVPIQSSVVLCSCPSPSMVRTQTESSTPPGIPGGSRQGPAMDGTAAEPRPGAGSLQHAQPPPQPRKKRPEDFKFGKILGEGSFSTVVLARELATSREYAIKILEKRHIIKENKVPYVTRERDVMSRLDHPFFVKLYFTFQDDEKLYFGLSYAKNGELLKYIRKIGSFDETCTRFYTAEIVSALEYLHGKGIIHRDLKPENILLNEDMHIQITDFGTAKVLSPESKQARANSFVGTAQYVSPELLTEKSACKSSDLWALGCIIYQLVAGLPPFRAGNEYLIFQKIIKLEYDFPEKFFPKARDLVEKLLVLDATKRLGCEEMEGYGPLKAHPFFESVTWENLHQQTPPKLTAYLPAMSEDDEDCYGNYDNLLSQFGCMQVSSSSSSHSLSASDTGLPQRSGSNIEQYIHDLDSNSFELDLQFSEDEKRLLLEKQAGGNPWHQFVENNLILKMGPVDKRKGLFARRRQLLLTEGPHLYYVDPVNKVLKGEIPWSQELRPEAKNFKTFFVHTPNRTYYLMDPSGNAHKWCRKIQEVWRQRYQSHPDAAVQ
# eIF-2-alpha kinase GCN2 = eIF-2-alpha kinase GCN2 (Homo sapiens, UniProt Q9P2K8, E556G); assay: Inhibition of recombinant full length human GCN2 E556G mutant using RSRSRSRSRSRSR as substrate after 40 mins in presence of [gamma-33ATP] by radiometric scintillation counting analysis
# PI3K p110 beta/p85 alpha = PI3K p110 beta/p85 alpha (Homo sapiens, UniProt P42338); assay: Inhibition of recombinant human full length PI3K p110beta/p85alpha using phosphatidylinositol-4, 5-bisphosphate as substrate incubated for 40 mins in presence of [gamma33P]ATP by radiometric scintillation counting analysis; assay type: protein-complex assay
# Sequence of PI3K p110 beta/p85 alpha (P27986 whole entry): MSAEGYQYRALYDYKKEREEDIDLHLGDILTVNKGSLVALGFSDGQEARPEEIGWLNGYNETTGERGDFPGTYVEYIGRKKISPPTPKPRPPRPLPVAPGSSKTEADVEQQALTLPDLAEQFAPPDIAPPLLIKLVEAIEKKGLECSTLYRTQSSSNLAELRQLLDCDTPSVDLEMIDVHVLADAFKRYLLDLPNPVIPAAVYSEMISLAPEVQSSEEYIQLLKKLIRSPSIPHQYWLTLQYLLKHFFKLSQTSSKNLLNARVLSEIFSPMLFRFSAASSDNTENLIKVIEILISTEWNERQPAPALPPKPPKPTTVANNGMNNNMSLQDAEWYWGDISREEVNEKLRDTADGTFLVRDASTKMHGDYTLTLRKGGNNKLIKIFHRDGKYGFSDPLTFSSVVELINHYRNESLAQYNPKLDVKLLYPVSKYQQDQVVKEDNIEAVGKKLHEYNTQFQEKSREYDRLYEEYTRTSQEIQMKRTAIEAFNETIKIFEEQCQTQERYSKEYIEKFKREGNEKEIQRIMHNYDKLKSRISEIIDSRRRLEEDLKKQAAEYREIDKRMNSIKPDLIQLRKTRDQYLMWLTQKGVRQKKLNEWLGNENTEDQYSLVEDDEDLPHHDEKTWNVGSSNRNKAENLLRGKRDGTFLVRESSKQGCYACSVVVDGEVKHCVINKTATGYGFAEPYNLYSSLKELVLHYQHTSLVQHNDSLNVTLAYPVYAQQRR
# Sequence of PI3K p110 beta/p85 alpha (P42338 whole entry): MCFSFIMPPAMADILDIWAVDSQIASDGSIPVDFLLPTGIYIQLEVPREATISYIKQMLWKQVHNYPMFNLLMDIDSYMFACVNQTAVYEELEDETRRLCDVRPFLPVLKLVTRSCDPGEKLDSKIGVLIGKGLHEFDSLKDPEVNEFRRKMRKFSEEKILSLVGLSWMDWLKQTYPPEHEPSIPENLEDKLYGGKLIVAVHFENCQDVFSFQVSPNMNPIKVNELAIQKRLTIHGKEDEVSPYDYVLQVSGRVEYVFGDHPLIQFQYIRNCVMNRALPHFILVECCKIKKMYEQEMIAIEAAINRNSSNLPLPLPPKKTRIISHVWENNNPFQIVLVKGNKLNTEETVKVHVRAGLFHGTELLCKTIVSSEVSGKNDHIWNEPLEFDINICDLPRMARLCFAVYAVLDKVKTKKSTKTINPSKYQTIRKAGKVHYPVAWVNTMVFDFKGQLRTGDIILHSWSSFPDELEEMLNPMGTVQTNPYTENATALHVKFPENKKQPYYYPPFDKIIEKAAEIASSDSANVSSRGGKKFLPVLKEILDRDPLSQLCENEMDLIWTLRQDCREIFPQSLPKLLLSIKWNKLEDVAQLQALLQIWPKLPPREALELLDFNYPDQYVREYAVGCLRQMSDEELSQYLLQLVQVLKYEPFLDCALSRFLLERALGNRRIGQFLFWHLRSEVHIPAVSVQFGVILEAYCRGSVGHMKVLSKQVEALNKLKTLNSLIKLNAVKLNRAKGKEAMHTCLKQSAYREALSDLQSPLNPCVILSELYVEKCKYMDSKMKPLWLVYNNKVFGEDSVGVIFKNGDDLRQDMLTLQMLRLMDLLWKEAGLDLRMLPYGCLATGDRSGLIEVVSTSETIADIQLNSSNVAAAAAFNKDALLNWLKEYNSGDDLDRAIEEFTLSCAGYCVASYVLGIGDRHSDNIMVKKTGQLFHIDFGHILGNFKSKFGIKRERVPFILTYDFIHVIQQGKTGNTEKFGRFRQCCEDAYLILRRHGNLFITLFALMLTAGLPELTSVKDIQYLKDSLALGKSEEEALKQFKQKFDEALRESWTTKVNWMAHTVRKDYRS
# [14] = molecular target: Tyrosine-protein kinase ABL1 (Homo sapiens, UniProt P00519); assay: Inhibition of human recombinant ABL1 (27 to end residues) using EAIYAAPFAKKK as substrate incubated for 40 mins in presence of [gamma-33P]ATP by radiometric scintillation counting analysis
# [15] = molecular target: Protein kinase C delta type (Homo sapiens, UniProt Q05655); assay: Inhibition of recombinant human PKCdelta (2 to end residues) using ERMRPRKRQGSVRR as substrate incubated for 40 mins in presence of [gamma33P]ATP by radiometric scintillation counting analysis
# [16] = molecular target: Calcium/calmodulin-dependent protein kinase kinase 1 (Homo sapiens, UniProt Q8N5S9); assay: Inhibition of recombinant full length human CaMKK1 using calmodulin as substrate incubated for 40 mins in presence of [gamma-33ATP] by radiometric scintillation counting analysis
# [17] = Inhibition of human recombinant full length AURORA-A I31F mutant using kemptide as substrate incubated for 40 mins in presence of [gamma-33P]ATPand 10 uM ATP by radiometric scintillation counting analysis
# Activin receptor type-1 = Activin receptor type-1 (Homo sapiens, UniProt Q04771); assay: Inhibition of human recombinant ALK2 (147 to end residues) using casein as substrate incubated for 40 mins in presence of [gamma-33P]ATP by radiometric scintillation counting analysis
# [18] = molecular target: Tyrosine-protein kinase ABL1 (Homo sapiens, UniProt P00519, M351T); assay: Inhibition of human recombinant ABL1 M351T mutant (27 to end residues) using EAIYAAPFAKKK as substrate incubated for 40 mins in presence of [gamma-33P]ATP by scintillation counting based radiometry assay
# [19] = molecular target: Protein kinase C iota type (Homo sapiens, UniProt P41743); assay: Inhibition of recombinant full-length human PKCiota using ERMRPRKRQGSVRR as substrate incubated for 40 mins in presence of [gamma33P]ATP by radiometric scintillation counting analysis
# Sequence of Protein kinase C iota type (P41743 whole entry, the tested form may be a part): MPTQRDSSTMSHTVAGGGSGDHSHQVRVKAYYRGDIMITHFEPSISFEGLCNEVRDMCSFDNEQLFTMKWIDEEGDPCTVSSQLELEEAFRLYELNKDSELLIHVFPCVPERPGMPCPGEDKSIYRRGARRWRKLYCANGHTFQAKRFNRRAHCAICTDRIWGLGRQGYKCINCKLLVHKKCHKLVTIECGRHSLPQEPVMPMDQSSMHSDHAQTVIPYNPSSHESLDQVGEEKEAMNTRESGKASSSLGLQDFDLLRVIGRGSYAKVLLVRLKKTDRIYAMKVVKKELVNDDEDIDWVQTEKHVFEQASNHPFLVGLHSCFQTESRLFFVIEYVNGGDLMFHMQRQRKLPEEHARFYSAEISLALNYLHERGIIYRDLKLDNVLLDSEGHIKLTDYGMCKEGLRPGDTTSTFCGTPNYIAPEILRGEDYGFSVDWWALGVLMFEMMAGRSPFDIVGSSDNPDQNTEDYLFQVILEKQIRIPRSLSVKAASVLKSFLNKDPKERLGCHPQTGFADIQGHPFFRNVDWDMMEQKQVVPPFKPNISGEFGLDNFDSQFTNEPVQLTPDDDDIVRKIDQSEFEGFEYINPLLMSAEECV
# [20] = molecular target: Mitogen-activated protein kinase kinase kinase kinase 4 (Homo sapiens, UniProt O95819); assay: Inhibition of recombinant human MAP4K4 (1 to 328 residues) using RLGRDKYKTLRQI as substrate incubated for 40 mins in presence of [gamma-33ATP by radiometric scintillation counting analysis
# Sequence of CDK7/Cyclin H/MNAT1 (P51946 whole entry): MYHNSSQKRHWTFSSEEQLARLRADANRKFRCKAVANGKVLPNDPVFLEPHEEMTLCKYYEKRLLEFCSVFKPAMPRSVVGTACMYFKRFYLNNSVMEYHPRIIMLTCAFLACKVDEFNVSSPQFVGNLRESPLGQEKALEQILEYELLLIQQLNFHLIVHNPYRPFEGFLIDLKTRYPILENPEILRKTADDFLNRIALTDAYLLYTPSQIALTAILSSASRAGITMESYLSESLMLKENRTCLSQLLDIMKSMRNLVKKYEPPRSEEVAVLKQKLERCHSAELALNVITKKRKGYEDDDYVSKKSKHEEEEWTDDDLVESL
# Sequence of CDK7/Cyclin H/MNAT1 (P50613 whole entry): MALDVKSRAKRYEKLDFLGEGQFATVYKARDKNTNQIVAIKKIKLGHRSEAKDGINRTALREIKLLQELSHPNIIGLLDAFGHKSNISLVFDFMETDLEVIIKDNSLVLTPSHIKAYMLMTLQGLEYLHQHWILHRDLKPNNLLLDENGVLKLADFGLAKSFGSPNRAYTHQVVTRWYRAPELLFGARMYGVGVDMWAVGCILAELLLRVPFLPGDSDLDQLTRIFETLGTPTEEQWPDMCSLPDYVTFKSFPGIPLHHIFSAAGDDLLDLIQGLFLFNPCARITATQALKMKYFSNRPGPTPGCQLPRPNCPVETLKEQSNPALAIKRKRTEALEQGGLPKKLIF
# Sequence of CDK7/Cyclin H/MNAT1 (P51948 whole entry, further chain): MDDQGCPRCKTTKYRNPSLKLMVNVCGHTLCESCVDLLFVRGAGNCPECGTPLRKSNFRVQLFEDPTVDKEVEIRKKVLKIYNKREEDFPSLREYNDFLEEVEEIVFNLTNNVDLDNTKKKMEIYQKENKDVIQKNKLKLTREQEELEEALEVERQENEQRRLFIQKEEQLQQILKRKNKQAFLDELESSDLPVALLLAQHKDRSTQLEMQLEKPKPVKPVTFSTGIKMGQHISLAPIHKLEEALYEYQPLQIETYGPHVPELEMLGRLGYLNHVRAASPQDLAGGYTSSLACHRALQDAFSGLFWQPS
structure (smiles),measurement,setting,value
CN(C)c1ccc(C(=O)Nc2cccc(NC(=O)COc3ccc4c(=O)ccoc4c3)c2)cc1,IC50,CDK7/Cyclin H/MNAT1,> 10 µM
same,IC50,CDK3/Cyclin E,> 10 µM
same,IC50,[1],> 10 µM
same,IC50,[2],> 10 µM
same,IC50,[3],> 10 µM
same,IC50,[4],> 10 µM
same,IC50,[5],> 10 µM
same,IC50,[6],> 10 µM
same,IC50,[7],> 10 µM
same,IC50,[8],> 10 µM
same,IC50,[9],> 10 µM
same,IC50,[10],> 10 µM
same,IC50,[11],> 10 µM
same,IC50,SRSF protein kinase 3,> 10 µM
same,IC50,[12],> 10 µM
same,IC50,[13],> 10 µM
same,IC50,eIF-2-alpha kinase GCN2,> 10 µM
same,IC50,PI3K p110 beta/p85 alpha,> 10 µM
same,IC50,[14],> 10 µM
same,IC50,[15],> 10 µM
same,IC50,[16],> 10 µM
same,IC50,[17],1.07 µM
same,IC50,Activin receptor type-1,> 10 µM
same,IC50,[18],> 10 µM
same,IC50,[19],> 10 µM
same,IC50,[20],> 10 µM

# Reference: ChEMBL document CHEMBL4376834, “Discovery of 4H-Chromen-4-one Derivatives as a New Class of Selective Rho Kinase (ROCK) Inhibitors, which Showed Potent Activity in ex Vivo Diabetic Retinopathy Models” (J Med Chem, 2019)
